# Laboratory results reported in PubChem BioAssay AID743469 (Vanderbilt Specialized Chemistry Center, 2014).
# Active and inactive are the calls of the source. How the calls were made is not given here.
# Target: Histone-lysine N-methyltransferase 2A (Homo sapiens) (UniProt Q03164)
# Assay: menin-MLL interaction inhibitors, SAR follow-up, biochemical, fluorescence polarization (AID 743469)
# Conditions: menin + fluorescein MLL peptide
# Histone-lysine N-methyltransferase 2A (Homo sapiens), sequence (Q03164 whole entry, looked up): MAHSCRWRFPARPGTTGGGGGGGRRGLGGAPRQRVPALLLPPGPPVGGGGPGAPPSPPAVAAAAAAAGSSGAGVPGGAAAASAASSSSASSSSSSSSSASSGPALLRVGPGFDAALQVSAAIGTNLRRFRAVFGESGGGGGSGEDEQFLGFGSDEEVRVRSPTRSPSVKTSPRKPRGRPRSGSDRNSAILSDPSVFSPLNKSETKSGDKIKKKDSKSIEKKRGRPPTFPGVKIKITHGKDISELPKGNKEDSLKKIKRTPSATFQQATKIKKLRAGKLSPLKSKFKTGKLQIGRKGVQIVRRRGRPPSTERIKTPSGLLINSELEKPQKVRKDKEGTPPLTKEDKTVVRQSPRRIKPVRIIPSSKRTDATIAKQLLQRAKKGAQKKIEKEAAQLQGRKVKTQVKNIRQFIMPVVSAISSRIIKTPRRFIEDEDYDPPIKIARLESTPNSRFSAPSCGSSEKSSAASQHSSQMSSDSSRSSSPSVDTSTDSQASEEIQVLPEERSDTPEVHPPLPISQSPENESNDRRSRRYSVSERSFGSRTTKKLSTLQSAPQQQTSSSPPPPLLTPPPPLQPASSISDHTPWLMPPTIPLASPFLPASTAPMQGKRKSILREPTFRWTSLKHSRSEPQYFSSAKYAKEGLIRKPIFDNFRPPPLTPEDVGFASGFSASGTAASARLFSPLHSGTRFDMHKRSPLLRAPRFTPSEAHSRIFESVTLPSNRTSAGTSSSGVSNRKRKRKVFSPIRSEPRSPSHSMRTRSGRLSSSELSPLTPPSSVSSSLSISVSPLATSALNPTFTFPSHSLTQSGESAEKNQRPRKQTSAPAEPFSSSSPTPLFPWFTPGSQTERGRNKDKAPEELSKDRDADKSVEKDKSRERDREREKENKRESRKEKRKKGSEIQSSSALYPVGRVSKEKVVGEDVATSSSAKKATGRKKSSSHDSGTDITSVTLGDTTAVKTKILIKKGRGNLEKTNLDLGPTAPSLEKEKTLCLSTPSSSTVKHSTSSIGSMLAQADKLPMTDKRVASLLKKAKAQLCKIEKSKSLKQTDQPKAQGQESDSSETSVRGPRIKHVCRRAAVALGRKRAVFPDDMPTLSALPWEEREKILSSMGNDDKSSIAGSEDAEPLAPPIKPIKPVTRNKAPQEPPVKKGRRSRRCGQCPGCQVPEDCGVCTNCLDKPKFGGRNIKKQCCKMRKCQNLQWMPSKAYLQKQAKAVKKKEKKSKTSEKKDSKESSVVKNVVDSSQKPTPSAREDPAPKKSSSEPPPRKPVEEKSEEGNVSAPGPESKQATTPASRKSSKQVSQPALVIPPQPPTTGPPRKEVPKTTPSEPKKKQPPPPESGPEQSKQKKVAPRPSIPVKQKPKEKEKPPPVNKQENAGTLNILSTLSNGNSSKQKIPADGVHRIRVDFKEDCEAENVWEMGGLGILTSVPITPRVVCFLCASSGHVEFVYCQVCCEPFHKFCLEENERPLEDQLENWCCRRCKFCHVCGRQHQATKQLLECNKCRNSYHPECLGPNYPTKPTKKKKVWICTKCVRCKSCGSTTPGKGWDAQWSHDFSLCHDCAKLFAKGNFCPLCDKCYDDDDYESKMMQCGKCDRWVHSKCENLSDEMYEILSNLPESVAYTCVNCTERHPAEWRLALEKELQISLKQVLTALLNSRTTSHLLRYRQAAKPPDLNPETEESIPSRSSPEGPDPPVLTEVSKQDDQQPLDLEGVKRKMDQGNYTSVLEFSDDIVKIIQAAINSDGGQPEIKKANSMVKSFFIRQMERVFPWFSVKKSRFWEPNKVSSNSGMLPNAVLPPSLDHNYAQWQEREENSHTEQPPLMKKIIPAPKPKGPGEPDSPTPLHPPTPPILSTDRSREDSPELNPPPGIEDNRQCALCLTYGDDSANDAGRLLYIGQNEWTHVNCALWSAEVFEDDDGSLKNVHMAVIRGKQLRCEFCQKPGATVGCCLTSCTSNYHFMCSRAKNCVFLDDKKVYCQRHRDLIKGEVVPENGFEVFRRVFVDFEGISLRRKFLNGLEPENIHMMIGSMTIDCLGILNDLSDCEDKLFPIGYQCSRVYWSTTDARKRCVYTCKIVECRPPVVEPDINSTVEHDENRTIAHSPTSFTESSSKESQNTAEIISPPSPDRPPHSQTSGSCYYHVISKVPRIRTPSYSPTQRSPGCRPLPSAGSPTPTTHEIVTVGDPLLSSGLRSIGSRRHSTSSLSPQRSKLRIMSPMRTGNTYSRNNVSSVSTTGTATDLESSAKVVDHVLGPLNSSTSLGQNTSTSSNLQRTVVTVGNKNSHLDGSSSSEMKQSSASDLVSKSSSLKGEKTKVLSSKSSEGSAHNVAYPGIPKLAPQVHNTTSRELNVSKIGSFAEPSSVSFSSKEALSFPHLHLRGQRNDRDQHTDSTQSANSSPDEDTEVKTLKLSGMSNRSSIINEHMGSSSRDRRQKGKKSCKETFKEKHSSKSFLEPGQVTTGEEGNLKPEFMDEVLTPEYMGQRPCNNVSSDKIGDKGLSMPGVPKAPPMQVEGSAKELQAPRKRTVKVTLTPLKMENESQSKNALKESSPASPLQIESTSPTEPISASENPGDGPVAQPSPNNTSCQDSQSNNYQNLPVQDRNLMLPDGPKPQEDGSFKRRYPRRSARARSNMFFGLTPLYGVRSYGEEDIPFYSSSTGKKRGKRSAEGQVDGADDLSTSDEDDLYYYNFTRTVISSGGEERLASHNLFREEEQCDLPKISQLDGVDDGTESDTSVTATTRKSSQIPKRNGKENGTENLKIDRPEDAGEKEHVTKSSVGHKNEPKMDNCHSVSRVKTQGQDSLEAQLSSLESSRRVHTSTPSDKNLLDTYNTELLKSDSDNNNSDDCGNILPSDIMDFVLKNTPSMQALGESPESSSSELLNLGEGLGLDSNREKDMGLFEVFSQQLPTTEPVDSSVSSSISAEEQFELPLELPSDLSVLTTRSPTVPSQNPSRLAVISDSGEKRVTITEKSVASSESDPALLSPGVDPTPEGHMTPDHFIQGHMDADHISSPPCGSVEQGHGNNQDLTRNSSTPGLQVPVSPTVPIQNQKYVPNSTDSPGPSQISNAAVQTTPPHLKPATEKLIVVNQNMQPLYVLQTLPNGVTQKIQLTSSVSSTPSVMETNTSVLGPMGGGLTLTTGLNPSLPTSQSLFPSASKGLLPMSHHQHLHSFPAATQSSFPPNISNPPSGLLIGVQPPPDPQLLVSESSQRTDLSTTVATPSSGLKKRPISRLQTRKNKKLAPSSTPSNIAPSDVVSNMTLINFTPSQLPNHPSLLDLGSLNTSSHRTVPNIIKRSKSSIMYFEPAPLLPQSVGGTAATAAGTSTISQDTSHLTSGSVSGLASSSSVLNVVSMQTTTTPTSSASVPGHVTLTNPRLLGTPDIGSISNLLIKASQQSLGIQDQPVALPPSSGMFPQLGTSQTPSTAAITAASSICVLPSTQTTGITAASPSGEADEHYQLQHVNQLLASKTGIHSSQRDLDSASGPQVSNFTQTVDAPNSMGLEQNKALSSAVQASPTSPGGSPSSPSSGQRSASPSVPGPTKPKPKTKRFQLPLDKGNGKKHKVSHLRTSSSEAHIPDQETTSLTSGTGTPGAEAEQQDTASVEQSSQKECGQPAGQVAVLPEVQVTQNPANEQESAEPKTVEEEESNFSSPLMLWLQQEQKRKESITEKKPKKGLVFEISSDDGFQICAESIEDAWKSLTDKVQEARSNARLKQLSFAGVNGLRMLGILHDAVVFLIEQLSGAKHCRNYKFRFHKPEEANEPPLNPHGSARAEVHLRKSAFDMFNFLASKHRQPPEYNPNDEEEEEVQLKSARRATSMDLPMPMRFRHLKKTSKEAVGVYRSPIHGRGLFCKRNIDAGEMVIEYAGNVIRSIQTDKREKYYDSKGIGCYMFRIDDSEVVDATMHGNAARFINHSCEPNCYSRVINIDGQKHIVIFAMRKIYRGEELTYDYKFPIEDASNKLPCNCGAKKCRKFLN
IC50,outcome,SMILES
43.7 nM,,NS(=O)(=O)c1ccc(OCCCN2CCC(C(O)(c3cccc(F)c3)c3nccs3)CC2)cc1 (stereo not given)
709 nM,,N#Cc1ccc(OCCCN2CCC(C(O)(c3cccnc3)C3CCCC3)CC2)cc1 (stereo not given)
43.7 nM,,N#Cc1ccc(OCCCN2CCC(C(O)(c3cc(F)cc(F)c3)c3ccccn3)CC2)cc1 (stereo not given)
,inactive,N#Cc1ccc(OCCCN2CCC(C(O)(c3ccccc3)C3CCCC3)CC2)nc1 (stereo not given)
19.7 nM,,N#Cc1ccc(OCCCN2CCC(C(O)(c3cccc(F)c3)c3nccs3)CC2)cc1 (stereo not given)
